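Values below derive from 48-hour exposures of cells grown in 96-well plates, with endpoints linearly interpolated between the two concentrations bracketing the appropriate inhibition level. Definition used: TGI = concentration required for complete inhibition of growth.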 Bounds are passed on as bounds.

Our source for the TGI values is PubChem BioAssay (NCI).

Among the test systems are A549 NSCLC; CCRF-CEM leukemia; DU-145 prostate; EKVX NSCLC; HOP-62 NSCLC; HS 578T breast; HT29 colon; PC-3 prostate; T-47D breast; U251 CNS.
Holding throughout (assay): NCI anticancer screen, dose series, 48 h

Consider `C=CCCC1(CC(Sc2ccccc2)P(=O)(c2ccccc2)c2ccccc2)OCCO1` (centres undefined), for which the TGI with A549 NSCLC, with CCRF-CEM leukemia, in the experiment on DU-145 prostate, in the experiment on EKVX NSCLC, with HOP-62 NSCLC and in the experiment on HS 578T breast was above 10 µM throughout. Also, the TGI in the experiment on HT29 colon, in the experiment with PC-3 prostate, in the experiment on T-47D breast and with U251 CNS was above 10 µM throughout.
`O=C1NC2O[C@H](CNC(=O)c3cc(Br)c[nH]3)CC2(O)N1` (mixture of isomers): the TGI with A549 NSCLC, in the experiment with DU-145 prostate, in the experiment on EKVX NSCLC, with HOP-62 NSCLC, with HS 578T breast and with HT29 colon was above 100 µM each time. The TGI with PC-3 prostate, in the experiment on T-47D breast and in the experiment with U251 CNS was above 100 µM in each case.
For `CSc1cc(Cl)c(C)cc1S(=O)(=O)NC(=O)NNc1cccc(C(F)(F)F)n1`, the TGI in the experiment with A549 NSCLC, in the experiment on CCRF-CEM leukemia, with DU-145 prostate, in the experiment with EKVX NSCLC, in the experiment on HOP-62 NSCLC and in the experiment with HS 578T breast was above 100 µM throughout. The TGI in the experiment on HT29 colon, with PC-3 prostate, in the experiment with T-47D breast and with U251 CNS was above 100 µM throughout.
For `CCOC(=O)c1c(N2CCOCC2)[nH]c(=O)c(C(c2c(Cl)cccc2Cl)c2c(O)c(C(=O)OCC)c(N3CCOCC3)[nH]c2=O)c1O`, the TGI with A549 NSCLC turned out to be 32.5 µM; in the experiment with CCRF-CEM leukemia it was 3.56 µM; in the experiment with DU-145 prostate it was 24.6 µM; in the experiment on EKVX NSCLC it was 32.9 µM; with HOP-62 NSCLC, 30.4 µM; with HS 578T breast, 19.4 µM. Besides, the TGI in the experiment with HT29 colon was found to be 12.9 µM; in the experiment on PC-3 prostate, 29.1 µM; with T-47D breast it was 13.2 µM; in the experiment with U251 CNS, 15.8 µM.
With `CCCCCCCCCCCC(=O)OCC(C[As](=O)(O)O)OC(=O)CCCCCCCCCCC` (centres undefined), the TGI in the experiment with A549 NSCLC was found to be 25.8 µM; with CCRF-CEM leukemia, 30.8 µM; in the experiment with DU-145 prostate it was 35.6 µM; in the experiment with EKVX NSCLC, 21 µM; in the experiment on HOP-62 NSCLC it was 78 µM; in the experiment with HS 578T breast, 13.3 µM. Moreover, the TGI was found to be 20.2 µM with HT29 colon, 9.52 µM in the experiment on PC-3 prostate, 42.3 µM in the experiment with T-47D breast and 2.93 µM in the experiment on U251 CNS.
Turning to `C[C@@H](c1ccccc1)n1c(N)c(C#N)c2ccc([N+](=O)[O-])cc2c1=O`, the TGI was above 100 µM in the experiment with A549 NSCLC; 33 µM with CCRF-CEM leukemia; 33 µM with DU-145 prostate; 69.4 µM in the experiment on HS 578T breast; 28.1 µM in the experiment with HT29 colon; above 100 µM in the experiment on PC-3 prostate. Besides, the TGI with T-47D breast was 51.1 µM; in the experiment on U251 CNS, 59.1 µM.
For the molecule `C[N+]1(C)CCc2cc(O)c(O)cc2C1Cc1ccc(O)c(O)c1` (centres undefined), the TGI with A549 NSCLC, with DU-145 prostate, in the experiment on EKVX NSCLC, in the experiment on HOP-62 NSCLC, with HS 578T breast and in the experiment on HT29 colon was above 100 µM in each case. Moreover, the TGI in the experiment on PC-3 prostate was above 100 µM; with T-47D breast, 54.7 µM; in the experiment with U251 CNS, above 100 µM.
For `O=[N+]([O-])c1ccc(S(=O)(=O)n2c3ccc(Br)cc3c3nc4ccccc4nc32)cc1`, the TGI with A549 NSCLC, with CCRF-CEM leukemia, in the experiment with DU-145 prostate, in the experiment with HOP-62 NSCLC, with HS 578T breast and in the experiment on HT29 colon was above 100 µM throughout. The TGI with PC-3 prostate, in the experiment on T-47D breast and in the experiment on U251 CNS was above 100 µM in each case.
Regarding `CC(=O)OC1C(Oc2c(C)cc3c(c2O)[C@@H](C)CC[C@@H]3[C@@H](C)CCC=C(C)C)OCC(O)C1O` (some centres undefined), the TGI in the experiment with A549 NSCLC came to 30.2 µM; in the experiment with CCRF-CEM leukemia, 66.9 µM; in the experiment on DU-145 prostate, 29.8 µM; in the experiment on HOP-62 NSCLC, 32.2 µM; in the experiment with HS 578T breast it was 47.4 µM; in the experiment with HT29 colon, 27.6 µM. Besides, the TGI with PC-3 prostate amounted to 39.6 µM; in the experiment with T-47D breast it was 43.5 µM; with U251 CNS it was 32.3 µM.
On to `COC(=O)C1=CS/C(=C2\S[C@@H]3[C@H](S2)[C@H]2C=C[C@@H]3C2)S1`, for which the TGI in the experiment with A549 NSCLC was above 100 µM; with CCRF-CEM leukemia, above 100 µM; in the experiment on DU-145 prostate it was above 100 µM; with HOP-62 NSCLC, above 100 µM; in the experiment with HS 578T breast, above 100 µM; in the experiment with HT29 colon, 92.6 µM. Besides, the TGI in the experiment with PC-3 prostate, in the experiment on T-47D breast and with U251 CNS was above 100 µM in each case.
Regarding `CCCc1c(O)nc(Nc2nc3ccccc3[nH]2)[nH]c1=O`, the TGI in the experiment on A549 NSCLC, in the experiment on CCRF-CEM leukemia, in the experiment on DU-145 prostate, in the experiment on EKVX NSCLC, in the experiment with HS 578T breast and in the experiment on HT29 colon was above 100 µM each time. In addition, the TGI in the experiment with PC-3 prostate, with T-47D breast and with U251 CNS was above 100 µM throughout.
For `COC(=O)c1cc2c(cc1CC(Cc1ccc3c(c1)CCCC3)C(=O)OC)CCCC2` (centres undefined), the TGI with A549 NSCLC, in the experiment with CCRF-CEM leukemia, in the experiment with DU-145 prostate, in the experiment on HOP-62 NSCLC, in the experiment with HS 578T breast and in the experiment on HT29 colon was above 100 µM each time. The TGI in the experiment on PC-3 prostate, in the experiment with T-47D breast and in the experiment with U251 CNS was above 100 µM each time.
Regarding `CCOC(=O)c1cc2c3ccn(Cc4ccccc4)c3c3c(C)[nH]oc3c2n1`, the TGI with A549 NSCLC, in the experiment on CCRF-CEM leukemia, in the experiment with DU-145 prostate, with EKVX NSCLC, in the experiment on HOP-62 NSCLC and in the experiment with HS 578T breast was above 100 µM in each case. Also, the TGI in the experiment on PC-3 prostate, with T-47D breast and with U251 CNS was above 100 µM in each case.
On to `C1=Cc2cc3c(c4nccc(c24)N1)OCO3`, for which the TGI in the experiment with A549 NSCLC is above 41.7 µM; with CCRF-CEM leukemia, above 100 µM; in the experiment on DU-145 prostate, 26.6 µM; in the experiment with EKVX NSCLC, 34 µM; in the experiment on HOP-62 NSCLC, above 82.4 µM; with HS 578T breast, 32.5 µM. Besides, the TGI with PC-3 prostate was above 100 µM; in the experiment on T-47D breast, 34.8 µM; in the experiment on U251 CNS, above 100 µM.
